Test results reported in ChEMBL document CHEMBL6134830, “Naturally inspired chimeric quinolone derivatives to reverse bacterial drug resistance” (Eur J Med Chem, 2025).
≈ marks a conversion by molar mass, not a printed value. Numbered stars: 1 amine (or outer) side, 2 acyl side, 3 side chain; on linkers, the order of the positions; unused ones are H or OH. Bridge positions count the residues as written; N and C are the ends. Square brackets hold non-standard residues; d marks the D form. Peptide text beside a SMILES is read from it. * marks the point of attachment. X1 = O=C(O)c1cn(C2CC2)c2cc(N3CCN(*)CC3)c(F)cc2c1=O; NH(CH2)11CH3 = CCCCCCCCCCCCN*; Suc = O=C(CCC(=O)[*:2])[*:1]; X2 = CC[C@H](C)CCCCC(=O)*; dDab = NCC[C@@H](N)C(=O)O; Dab = NCC[C@H](N)C(=O)O

Assays:
[1] = test system: L929; test: Cytotoxicity against mouse L929 cells assessed as reduction in cell viability at 25 microg/mL incubated for 24 hrs by MTT assay; type: toxicity, cell-based; settings: l929, 24 h, dose 25 µg/ml
[2] = test system: Staphylococcus aureus; test: Antimicrobial activity against Methicillin-resistant Staphylococcus aureus ATCC 43300 assessed as inhibition of bacterial growth measured after 20 hrs by CLSI protocol based Muller Hinton broth assay; type: functional
[3] = test system: Pseudomonas aeruginosa; test: Antimicrobial activity against Pseudomonas aeruginosa ATCC 27853 assessed as inhibition of bacterial growth measured after 20 hrs by CLSI protocol based Muller Hinton broth assay; type: functional
[4] = test system: Acinetobacter baumannii; test: Antimicrobial activity against Acinetobacter baumannii ATCC 19606 assessed as inhibition of bacterial growth measured after 20 hrs by CLSI protocol based Muller Hinton broth assay; type: functional
[5] = test system: Enterococcus faecalis; test: Antimicrobial activity against Enterococcus faecalis ATCC 19433 assessed as inhibition of bacterial growth measured after 20 hrs by CLSI protocol based Muller Hinton broth assay; type: functional
[6] = test system: Staphylococcus aureus; test: Antimicrobial activity against Staphylococcus aureus ATCC 25923 assessed as inhibition of bacterial growth measured after 20 hrs by CLSI protocol based Muller Hinton broth assay; type: functional
[7] = test system: Enterococcus gallinarum; test: Antimicrobial activity against Enterococcus gallinarum ATCC 49573 assessed as inhibition of bacterial growth measured after 20 hrs by CLSI protocol based Muller Hinton broth assay; type: functional
[8] = Hemolytic activity in Sprague-Dawley rat Red blood cells at 100 ug/ml incubated for 1 hrs by absorbance based analysis; type: toxicity, cell-based; settings: erythrocyte, dose 100 µg/ml
[9] = test system: Escherichia coli; test: Antimicrobial activity against Escherichia coli ATCC 25922 assessed as inhibition of bacterial growth measured after 20 hrs by CLSI protocol based Muller Hinton broth assay; type: functional
[10] = test system: Cell membrane; test: Disruption of cell membrane in methicillin-resistant Staphylococcus aureus assessed as PI-positive bacteria at 8 times MIC measured after 30 mins by PI staining based flow cytometry analysis (reference value: 7.49 %); type: subcellular

Row | SMILES | MIC [6] [µg/mL] | other results
1 | CCCCCCCCCCCCNC(=O)[C@H](CCCCN)NC(=O)[C@H](CCCCN)NC(=O)[C@H](CCCCN)NC(=O)CCCCCCCCCCCNC(=O)CCC(=O)N1CCN(c2cc3c(cc2F)c(=O)c(C(=O)O)cn3C2CC2)CC1 | 3.12 (≈ 2.65 µM) | Activity [1]: Toxic; MIC [2]: 6.25 µg/mL (≈ 5.29 µM); MIC [3]: 6.25 µg/mL (≈ 5.29 µM); MIC [4]: 6.25 µg/mL (≈ 5.29 µM); MIC [5]: 12.5 µg/mL (≈ 10.6 µM); MIC [7]: 6.25 µg/mL (≈ 5.29 µM); Activity [8]: Toxic; MIC [9]: 12.5 µg/mL (≈ 10.6 µM)
2 | NCCCC[C@H](NC(=O)c1ccc(C(=O)N2CCN(c3cc4c(cc3F)c(=O)c(C(=O)O)cn4C3CC3)CC2)cc1)C(=O)NCc1ccc(-c2ccccc2)cc1 | 50 (≈ 64.7 µM) | 
3 | CCCCCCCCCCCCNC(=O)[C@H](CCCCN)NC(=O)c1ccc(C(=O)N2CCN(c3cc4c(cc3F)c(=O)c(C(=O)O)cn4C3CC3)CC2)cc1 | 50 (≈ 64.5 µM) | 
4 | CCCCCCCCCNC(=O)[C@H](CCCCN)NC(=O)[C@H](CCCCN)NC(=O)c1ccc(C(=O)N2CCN(c3cc4c(cc3F)c(=O)c(C(=O)O)cn4C3CC3)CC2)cc1 | 6.25 (≈ 7.26 µM) | 
5 | CC(C)CCCCC(=O)N[C@@H](CCN)C(=O)N[C@H](C(=O)N[C@@H](CCN)C(=O)N[C@H]1CCNC(=O)[C@H]([C@@H](C)O)NC(=O)[C@H](CCN)NC(=O)[C@H](CCN)NC(=O)[C@H](CC(C)C)NC(=O)[C@@H](Cc2ccccc2)NC(=O)[C@@H](CCN)NC1=O)[C@@H](C)O.CC[C@H](C)CCCCC(=O)N[C@@H](CCN)C(=O)N[C@H](C(=O)N[C@@H](CCN)C(=O)N[C@H]1CCNC(=O)[C@H]([C@@H](C)O)NC(=O)[C@H](CCN)NC(=O)[C@H](CCN)NC(=O)[C@H](CC(C)C)NC(=O)[C@@H](Cc2ccccc2)NC(=O)[C@@H](CCN)NC1=O)[C@@H](C)O (X2-[Dab]T[Dab][Dab][dDab][dF]L[Dab][Dab]T; lactam 4-C) |  | Activity [10]: 57.2%
6 | NCCCC[C@H](NC(=O)c1ccc(C(=O)N2CCN(c3cc4c(cc3F)c(=O)c(C(=O)O)cn4C3CC3)CC2)cc1)C(=O)NCc1ccccc1Cl | 25 (≈ 34.2 µM) | 
7 | CCCCCCCCCCCCCCCCNC(=O)[C@H](CCCCN)NC(=O)c1ccc(C(=O)N2CCN(c3cc4c(cc3F)c(=O)c(C(=O)O)cn4C3CC3)CC2)cc1 | > 100 | 
8 | CCCCCCCCCCCC(=O)N[C@@H](CCCNC(=N)N)C(=O)N1CCN(c2cc3c(cc2F)c(=O)c(C(=O)O)cn3C2CC2)CC1 | 6.25 (≈ 9.33 µM) | 
9 | N[C@@H](Cc1c[nH]cn1)C(=O)N1CCN(c2cc3c(cc2F)c(=O)c(C(=O)O)cn3C2CC2)CC1 | ≥ 12.5 | 
10 | CCCCCCCCNC(=O)[C@H](CCCCN)NC(=O)c1ccc(C(=O)N2CCN(c3cc4c(cc3F)c(=O)c(C(=O)O)cn4C3CC3)CC2)cc1 | 12.5 (≈ 17.4 µM) | 
11 | CCCCCCCCCCCC(=O)N[C@@H](Cc1c[nH]cn1)C(=O)N1CCN(c2cc3c(cc2F)c(=O)c(C(=O)O)cn3C2CC2)CC1 | 6.25 (≈ 9.6 µM) | 
12 | CCCCCCCCCCCCNC(=O)[C@H](CCCCN)NC(=O)[C@H](CCCCN)NC(=O)[C@H](CCCCN)NC(=O)[C@H](CO)NC(=O)CCC(=O)N1CCN(c2cc3c(cc2F)c(=O)c(C(=O)O)cn3C2CC2)CC1 ({X1-Suc}-SKKK-{NH(CH2)11CH3}) | 6.25 (≈ 5.84 µM) | Activity [1]: Toxic; MIC [2]: 12.5 µg/mL (≈ 11.7 µM); MIC [3]: 50 µg/mL (≈ 46.7 µM); MIC [4]: 12.5 µg/mL (≈ 11.7 µM); MIC [5]: 25 µg/mL (≈ 23.4 µM); MIC [7]: 25 µg/mL (≈ 23.4 µM); Activity [8]: Toxic; MIC [9]: 25 µg/mL (≈ 23.4 µM)

More lines, main results first:

Row | MIC [6] [µg/mL] | SMILES | other results
13 | 3.12 (≈ 3.16 µM) | CCCCCCCCCNC(=O)[C@H](CCCCN)NC(=O)[C@H](CCCCN)NC(=O)[C@H](CCCCN)NC(=O)c1ccc(C(=O)N2CCN(c3cc4c(cc3F)c(=O)c(C(=O)O)cn4C3CC3)CC2)cc1 | 
14 | 12.5 (≈ 11.3 µM) | CCCCCCCCCCCCNC(=O)[C@H](CCCCN)NC(=O)[C@H](CCCCN)NC(=O)[C@H](CCCCN)NC(=O)CCCCCCNC(=O)CCC(=O)N1CCN(c2cc3c(cc2F)c(=O)c(C(=O)O)cn3C2CC2)CC1 | 
15 | 25 (≈ 27.7 µM) | CCCCCCCCCCCCNC(=O)[C@H](CCCCN)NC(=O)[C@H](CCCCN)NC(=O)c1ccc(C(=O)N2CCN(c3cc4c(cc3F)c(=O)c(C(=O)O)cn4C3CC3)CC2)cc1 | 
16 | 12.5 (≈ 11.1 µM) | CCCCCCCCCCCCNC(=O)[C@H](CCCCN)NC(=O)[C@H](CCCCN)NC(=O)[C@H](CCCCN)NC(=O)COCCOCCNC(=O)CCC(=O)N1CCN(c2cc3c(cc2F)c(=O)c(C(=O)O)cn3C2CC2)CC1 | 
17 | 3.12 (≈ 3.2 µM) | CCCCCCCCNC(=O)[C@H](CCCCN)NC(=O)[C@H](CCCCN)NC(=O)[C@H](CCCCN)NC(=O)c1ccc(C(=O)N2CCN(c3cc4c(cc3F)c(=O)c(C(=O)O)cn4C3CC3)CC2)cc1 | 
18 | 3.12 (≈ 3.11 µM) | CCCCCCCCCCNC(=O)[C@H](CCCCN)NC(=O)[C@H](CCCCN)NC(=O)[C@H](CCCCN)NC(=O)c1ccc(C(=O)N2CCN(c3cc4c(cc3F)c(=O)c(C(=O)O)cn4C3CC3)CC2)cc1 | 
19 | > 50 | CCCCCCCCCCCCNC(=O)[C@H](CCCCN)NC(=O)[C@H](CCCCN)NC(=O)[C@H](CCCCN)NC(=O)CCNC(=O)CCC(=O)N1CCN(c2cc3c(cc2F)c(=O)c(C(=O)O)cn3C2CC2)CC1 | 
20 | > 50 | CCCCCCCCCCCCNC(=O)[C@H](CCCCN)NC(=O)[C@H](CCCCN)NC(=O)[C@H](CCCCN)NC(=O)CCC(=O)N1CCN(c2cc3c(cc2F)c(=O)c(C(=O)O)cn3C2CC2)CC1 | 
21 | > 50 | CCCCCCCCCCCCCCCCNC(=O)[C@H](CCCCN)NC(=O)[C@H](CCCCN)NC(=O)[C@H](CCCCN)NC(=O)c1ccc(C(=O)N2CCN(c3cc4c(cc3F)c(=O)c(C(=O)O)cn4C3CC3)CC2)cc1 | 
